Test results published in ChEMBL document CHEMBL3885881, “DrugMatrix”.

Species: Rattus norvegicus
Assay: DrugMatrix - Regimen: Daily Repeat
Type: toxicity, organism-based, Sprague-Dawley
Design: regimen Daily Repeat, gender Male, age 6-8 weeks
Details: in vivo, po, route oral GAVAGE, […]; for ABSOLUTE BASOPHIL / ABSOLUTE EOSINOPHIL / ABSOLUTE LYMPHOCYTE / ABSOLUTE MONOCYTE / ABSOLUTE SEGMENTED NEUTROPHIL / BASOPHIL / EOSINOPHIL / ERYTHROCYTE COUNT / HEMATOCRIT / HEMOGLOBIN / LEUKOCYTE COUNT / LYMPHOCYTE / MEAN CORPUSCULAR HEMOGLOBIN / MEAN CORPUSCULAR HEMOGLOBIN CONCENTRATION / MEAN CORPUSCULAR VOLUME / MONOCYTE / NEUTROPHIL / NUCLEATED RED BLOOD CELLS / PLATELET COUNT: tissue Blood; for ALANINE AMINOTRANSFERASE / ALBUMIN / ALKALINE PHOSPHATASE / ASPARTATE AMINOTRANSFERASE / BLOOD UREA NITROGEN / CARBON DIOXIDE / CHLORIDE / CHOLESTEROL / CREATINE PHOSPHOKINASE / CREATININE / GLUCOSE / LACTATE DEHYDROGENASE / LIPASE / PHOSPHORUS / POTASSIUM / SODIUM / TOTAL BILIRUBIN / TOTAL PROTEIN / URIC ACID: tissue Plasma
[1] = 0 mg/kg, 72 h, dose level Control, time 3 day
[2] = 0 mg/kg, 120 h, dose level Control, time 5 day
[3] = 280 mg/kg, 72 h, dose level High, time 3 day

## CC/C(=C(/CC)c1ccc(O)cc1)c1ccc(O)cc1 [DIETHYLSTILBESTROL]
[1]
  ABSOLUTE BASOPHIL: 0 CELLS/uL
  ABSOLUTE EOSINOPHIL: 14 CELLS/uL
  ABSOLUTE LYMPHOCYTE: 11144.67 CELLS/uL
  ABSOLUTE MONOCYTE: 22.5 CELLS/uL
  ABSOLUTE SEGMENTED NEUTROPHIL: 535.5 CELLS/uL
  BASOPHIL: 0%
  EOSINOPHIL: 0.17%
  ERYTHROCYTE COUNT: 5.08 x10E6/uL
  HEMATOCRIT: 32.32%
  HEMOGLOBIN: 12.87 G/DL
  LEUKOCYTE COUNT: 11.72 x10E3/uL
  LYMPHOCYTE: 94.67%
  MEAN CORPUSCULAR HEMOGLOBIN: 25.37 pg
  MEAN CORPUSCULAR HEMOGLOBIN CONCENTRATION: 39.85 G/DL
  MEAN CORPUSCULAR VOLUME: 63.58 fL
  MONOCYTE: 0.17%
  NEUTROPHIL: 5%
  NUCLEATED RED BLOOD CELLS: 0 /100WBC
  PLATELET COUNT: 1084 x10E3/uL
  ALANINE AMINOTRANSFERASE: 67.5 u/L
  ALBUMIN: 4.02 G/DL
  ALKALINE PHOSPHATASE: 374.17 u/L
  ASPARTATE AMINOTRANSFERASE: 83.5 u/L
  BLOOD UREA NITROGEN: 14.5 mg/dL
  CARBON DIOXIDE: 30 mmol/L
  CHLORIDE: 100.5 MEQ/L
  CHOLESTEROL: 71.33 mg/dL
  CREATINE PHOSPHOKINASE: 268.33 u/L
  CREATININE: 0.16 mg/dL
  GLUCOSE: 170.5 mg/dL
  LACTATE DEHYDROGENASE: 81.17 u/L
  LIPASE: 16.67 u/L
  PHOSPHORUS: 10.07 mg/dL
  POTASSIUM: 5.03 MEQ/L
  SODIUM: 142.92 MEQ/L
  TOTAL BILIRUBIN: 0.17 mg/dL
  TOTAL PROTEIN: 5.63 G/DL
  URIC ACID: 0.5 mg/dL
[2]
  ABSOLUTE BASOPHIL: 0 CELLS/uL
  ABSOLUTE EOSINOPHIL: 37.5 CELLS/uL
  ABSOLUTE LYMPHOCYTE: 8049.5 CELLS/uL
  ABSOLUTE MONOCYTE: 82.83 CELLS/uL
  ABSOLUTE SEGMENTED NEUTROPHIL: 646.83 CELLS/uL
  BASOPHIL: 0%
  EOSINOPHIL: 0.5%
  ERYTHROCYTE COUNT: 5.36 x10E6/uL
  HEMATOCRIT: 33.9%
  HEMOGLOBIN: 13.02 G/DL
  LEUKOCYTE COUNT: 8.82 x10E3/uL
  LYMPHOCYTE: 90.17%
  MEAN CORPUSCULAR HEMOGLOBIN: 24.32 pg
  MEAN CORPUSCULAR HEMOGLOBIN CONCENTRATION: 38.42 G/DL
  MEAN CORPUSCULAR VOLUME: 63.32 fL
  MONOCYTE: 1.17%
  NEUTROPHIL: 8.17%
  NUCLEATED RED BLOOD CELLS: 0.17 /100WBC
  PLATELET COUNT: 1231.5 x10E3/uL
  ALANINE AMINOTRANSFERASE: 62 u/L
  ALBUMIN: 3.97 G/DL
  ALKALINE PHOSPHATASE: 303.67 u/L
  ASPARTATE AMINOTRANSFERASE: 84.5 u/L
  BLOOD UREA NITROGEN: 14.83 mg/dL
  CARBON DIOXIDE: 31.83 mmol/L
  CHLORIDE: 97 MEQ/L
  CHOLESTEROL: 68.83 mg/dL
  CREATINE PHOSPHOKINASE: 411.33 u/L
  CREATININE: 0.16 mg/dL
  GLUCOSE: 170.17 mg/dL
  LACTATE DEHYDROGENASE: 88.5 u/L
  LIPASE: 9.5 u/L
  PHOSPHORUS: 9.98 mg/dL
  POTASSIUM: 5.72 MEQ/L
  SODIUM: 141.62 MEQ/L
  TOTAL BILIRUBIN: 0.1 mg/dL
  TOTAL PROTEIN: 5.67 G/DL
  URIC ACID: 0.52 mg/dL
[3]
  ABSOLUTE BASOPHIL: 0 CELLS/uL
  ABSOLUTE EOSINOPHIL: 42 CELLS/uL
  ABSOLUTE LYMPHOCYTE: 6341.67 CELLS/uL
  ABSOLUTE MONOCYTE: 46.67 CELLS/uL
  ABSOLUTE SEGMENTED NEUTROPHIL: 836.33 CELLS/uL
  BASOPHIL: 0%
  EOSINOPHIL: 0.67%
  ERYTHROCYTE COUNT: 5.06 x10E6/uL
  HEMATOCRIT: 31.5%
  HEMOGLOBIN: 12.2 G/DL
  LEUKOCYTE COUNT: 7.27 x10E3/uL
  LYMPHOCYTE: 87%
  MEAN CORPUSCULAR HEMOGLOBIN: 24.13 pg
  MEAN CORPUSCULAR HEMOGLOBIN CONCENTRATION: 38.77 G/DL
  MEAN CORPUSCULAR VOLUME: 62.27 fL
  MONOCYTE: 0.67%
  NEUTROPHIL: 11.67%
  NUCLEATED RED BLOOD CELLS: 0 /100WBC
  PLATELET COUNT: 1040.67 x10E3/uL
  ALANINE AMINOTRANSFERASE: 64 u/L
  ALBUMIN: 3.57 G/DL
  ALKALINE PHOSPHATASE: 625.67 u/L
  ASPARTATE AMINOTRANSFERASE: 73 u/L
  BLOOD UREA NITROGEN: 16 mg/dL
  CARBON DIOXIDE: 23 mmol/L
  CHLORIDE: 107.33 MEQ/L
  CHOLESTEROL: 31.33 mg/dL
  CREATINE PHOSPHOKINASE: 341 u/L
  CREATININE: 0.17 mg/dL
  GLUCOSE: 156.67 mg/dL
  LACTATE DEHYDROGENASE: 103.33 u/L
  LIPASE: 8 u/L
  PHOSPHORUS: 9 mg/dL
  POTASSIUM: 5.01 MEQ/L
  SODIUM: 147.7 MEQ/L
  TOTAL BILIRUBIN: 0.27 mg/dL
  TOTAL PROTEIN: 5.5 G/DL
  URIC ACID: 0.53 mg/dL
